Assay results: US20240317780A1, “RADIOPHARMACEUTICAL SOMATOSTATIN RECEPTOR LIGANDS AND PRECURSORS THEREOF” (Technische Universität München, priority 2021, published 2024)

Assays:
HSA = HSA (Homo sapiens, UniProt P02768); test: HSA binding by RIAC method (gel filtration, apparent molecular weight); type: in vitro ADME; conditions: HSA binding as apparent molecular weight, 700 μM HSA in PBS mobile phase
Procedure: A gel filtration column Superdex 75 Increase 10/300 GL (GE Healthcare, Uppsala, Sweden) was beforehand calibrated following the producer's recommendations with a commercially available gel filtration calibration kit (GE Healthcare, Buckinghamshire, UK) comprising conalbumin (MW: 75 kDa), ovalbumin (44 kDa), carbonic anhydrase (29 kDa), ribonuclease A (13.7 kDa) and aprotinin (6.5 kDa) as reference proteins of known molecular weight. AMSEC experiments were conducted using a constant flow rate of 0.8 mL/min at rt. A solution of HSA in PBS at physiological concentration (700 μM) was used as the mobile phase. SST2 ligands were labelled as described with molar activities of 10-20 GBq/μmol. Probes of 1.0 MBq of the radioligand were injected directly from the labelling solution. HSA binding was expressed as an apparent molecular weight MW calculated from the retention time of the radioligand using the determined calibration curve.
For evaluation, experimentally determined retention times tR are first converted into elution volumes Ve by multiplying with the flow rate and thereafter converted into partition coefficients Kav following the equation
where V0 is the column void volume (8.027 mL) and Vc is the geometric column volume (24 mL). Using the equation given by the trend line plot of the column calibration
the apparent molecular weight MW is calculated as […]

[1] = Octanol-water distribution coefficient (logD pH 7.4) of the labeled tracer; type: physicochemical; conditions: n-octanol/PBS pH 7.4, room temperature
Summary of the method: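 About 1 MBq tracer partitioned in 1:1 PBS pH 7.4/n-octanol, mixed 3 min at room temperature, centrifuged 15000 g for 5 min. Both layers counted by gamma counter; at least six repeats.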

HSA, sequence (P02768 25-609): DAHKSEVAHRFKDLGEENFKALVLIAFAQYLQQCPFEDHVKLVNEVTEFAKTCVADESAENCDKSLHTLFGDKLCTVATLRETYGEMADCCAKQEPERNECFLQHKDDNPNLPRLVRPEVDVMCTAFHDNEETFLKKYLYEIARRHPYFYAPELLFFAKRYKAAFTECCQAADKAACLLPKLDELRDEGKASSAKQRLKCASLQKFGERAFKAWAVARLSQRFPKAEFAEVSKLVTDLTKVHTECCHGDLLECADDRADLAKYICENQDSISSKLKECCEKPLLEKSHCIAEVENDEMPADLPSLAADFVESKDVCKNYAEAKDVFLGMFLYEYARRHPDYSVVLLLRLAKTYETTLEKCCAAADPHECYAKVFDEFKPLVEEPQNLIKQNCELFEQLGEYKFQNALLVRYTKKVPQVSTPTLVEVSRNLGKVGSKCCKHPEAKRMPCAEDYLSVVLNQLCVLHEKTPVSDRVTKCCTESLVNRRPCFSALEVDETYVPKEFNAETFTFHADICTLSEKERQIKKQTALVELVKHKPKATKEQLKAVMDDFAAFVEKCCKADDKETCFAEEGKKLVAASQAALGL

With C[C@@H](O)[C@H](NC(=O)C1CSSCC(NC(=O)C(Cc2ccccc2)NC(=O)CNC(=O)CNC(=O)CNC(=O)C(CC(=O)O)NC(=O)[C@@H](CC(=O)O)NC(=O)C(CCCCN)NC(=O)[C@@H](CNC(=O)C[N+](C)(C)Cc2ccc([Si](F)(C(C)(C)C)C(C)(C)C)cc2)NC(=O)CN2CCN(CC(=O)O)CCN(CC(=O)O)CCN(CC(=O)O)CC2)C(=O)N[C@@H](Cc2ccc(O)cc2)C(=O)NC(Cc2c[nH]c3ccccc23)C(=O)N[C@@H](CCCCN)C(=O)N[C@@H]([C@@H](C)O)C(=O)N1)C(=O)O (stereo partly shown) [[Ga]45] the HSA (HSA) was 7.76 kDa and the “LogDpH=7.4” value [1] was −2.10 ± 0.04.
For C[C@@H](O)[C@H](NC(=O)C1CSSCC(NC(=O)C(Cc2ccccc2)NC(=O)CNC(=O)CNC(=O)CNC(=O)C(CC(=O)O)NC(=O)[C@@H](CC(=O)O)NC(=O)C(CCCNC(N)=O)NC(=O)[C@@H](CNC(=O)C[N+](C)(C)Cc2ccc([Si](F)(C(C)(C)C)C(C)(C)C)cc2)NC(=O)CN2CCN(CC(=O)O)CCN(CC(=O)O)CCN(CC(=O)O)CC2)C(=O)N[C@@H](Cc2ccc(O)cc2)C(=O)NC(Cc2c[nH]c3ccccc23)C(=O)N[C@@H](CCCCN)C(=O)N[C@@H]([C@@H](C)O)C(=O)N1)C(=O)O (stereo partly shown) [[Ga]46], the HSA (HSA) was 6.81 kDa and the “LogDpH=7.4” value [1] was −2.22 ± 0.03.
For C[C@@H](O)[C@H](NC(=O)C1CSSCC(NC(=O)C(Cc2ccccc2)NC(=O)CNC(=O)CNC(=O)CNC(=O)C(CC(=O)O)NC(=O)[C@@H](CC(=O)O)NC(=O)C(CCC(=O)O)NC(=O)[C@@H](CNC(=O)C[N+](C)(C)Cc2ccc([Si](F)(C(C)(C)C)C(C)(C)C)cc2)NC(=O)CN2CCN(CC(=O)O)CCN(CC(=O)O)CCN(CC(=O)O)CC2)C(=O)N[C@@H](Cc2ccc(O)cc2)C(=O)NC(Cc2c[nH]c3ccccc23)C(=O)N[C@@H](CCCCN)C(=O)N[C@@H]([C@@H](C)O)C(=O)N1)C(=O)O (stereo partly shown) [[Ga]47], the HSA (HSA) was 7.66 kDa and the “LogDpH=7.4” value [1] was −2.30 ± 0.02.
With C[C@@H](O)[C@H](NC(=O)C1CSSCC(NC(=O)C(Cc2ccccc2)NC(=O)[C@@H](CC(N)=O)NC(=O)C(CC(N)=O)NC(=O)[C@@H](CC(=O)O)NC(=O)C(CC(=O)O)NC(=O)[C@@H](CNC(=O)CN2CCN(CC(=O)O)CCN(CC(=O)O)CCN(CC(=O)O)CC2)NC(=O)C[N+](C)(C)Cc2ccc([Si](F)(C(C)(C)C)C(C)(C)C)cc2)C(=O)N[C@@H](Cc2ccc(O)cc2)C(=O)NC(Cc2c[nH]c3ccccc23)C(=O)N[C@@H](CCCCN)C(=O)N[C@@H]([C@@H](C)O)C(=O)N1)C(=O)O (stereo partly shown) [[Ga]48] the HSA (HSA) was 8.11 kDa and the “LogDpH=7.4” value [1] was −2.10 ± 0.05.
For C[C@@H](O)[C@H](NC(=O)C1CSSCC(NC(=O)C(Cc2ccccc2)NC(=O)[C@@H](CC(N)=O)NC(=O)C(CC(N)=O)NC(=O)CNC(=O)C(CC(=O)O)NC(=O)[C@@H](CC(=O)O)NC(=O)C(CNC(=O)CN2CCN(CC(=O)O)CCN(CC(=O)O)CCN(CC(=O)O)CC2)NC(=O)C[N+](C)(C)Cc2ccc([Si](F)(C(C)(C)C)C(C)(C)C)cc2)C(=O)N[C@@H](Cc2ccc(O)cc2)C(=O)NC(Cc2c[nH]c3ccccc23)C(=O)N[C@@H](CCCCN)C(=O)N[C@@H]([C@@H](C)O)C(=O)N1)C(=O)O (stereo partly shown) [[Ga]49], the HSA (HSA) was 7.26 kDa and the “LogDpH=7.4” value [1] was −2.16 ± 0.03.
For C[C@@H](O)[C@H](NC(=O)C1CSSCC(NC(=O)C(Cc2ccccc2)NC(=O)CNC(=O)CNC(=O)CNC(=O)C(CC(=O)O)NC(=O)[C@@H](CC(=O)O)NC(=O)C(CNC(=O)CN2CCN(CC(=O)O)CCN(CC(=O)O)CCN(CC(=O)O)CC2)NC(=O)C[N+](C)(C)Cc2ccc([Si](F)(C(C)(C)C)C(C)(C)C)cc2)C(=O)N[C@@H](Cc2ccc(O)cc2)C(=O)NC(Cc2c[nH]c3ccccc23)C(=O)N[C@@H](CCCCN)C(=O)N[C@@H]([C@@H](C)O)C(=O)N1)C(=O)O (stereo partly shown) [[Ga]50], the HSA (HSA) was 8.18 kDa and the “LogDpH=7.4” value [1] was −2.00 ± 0.12.
In the case of C[C@@H](O)[C@H](NC(=O)C1CSSCC(NC(=O)C(Cc2ccccc2)NC(=O)CNC(=O)CNC(=O)CNC(=O)C(CC(=O)O)NC(=O)[C@@H](CC(=O)O)NC(=O)C(CNC(=O)CN2CCN(CC(=O)O)CCN(CC(=O)O)CCN(CC(=O)O)CC2)NC(=O)[C@@H](CN)NC(=O)C[N+](C)(C)Cc2ccc([Si](F)(C(C)(C)C)C(C)(C)C)cc2)C(=O)N[C@@H](Cc2ccc(O)cc2)C(=O)NC(Cc2c[nH]c3ccccc23)C(=O)N[C@@H](CCCCN)C(=O)N[C@@H]([C@@H](C)O)C(=O)N1)C(=O)O (stereo partly shown) [[Ga]51], the HSA (HSA) is reported as 8.71 kDa and the “LogDpH=7.4” value [1] is reported as −1.97 ± 0.01.
In the case of C[C@@H](O)[C@H](NC(=O)C1CSSCC(NC(=O)C(Cc2ccccc2)NC(=O)CNC(=O)CNC(=O)CNC(=O)C(CC(=O)O)NC(=O)[C@@H](CC(=O)O)NC(=O)C(CNC(=O)CN2CCN(CC(=O)O)CCN(CC(=O)O)CCN(CC(=O)O)CC2)NC(=O)[C@@H](CN)NC(=O)CNC(=O)C[N+](C)(C)Cc2ccc([Si](F)(C(C)(C)C)C(C)(C)C)cc2)C(=O)N[C@@H](Cc2ccc(O)cc2)C(=O)NC(Cc2c[nH]c3ccccc23)C(=O)N[C@@H](CCCCN)C(=O)N[C@@H]([C@@H](C)O)C(=O)N1)C(=O)O (stereo partly shown) [[Ga]52], the HSA (HSA) is reported as 7.82 kDa and the “LogDpH=7.4” value [1] is reported as −2.00 ± 0.02.
For C[C@@H](O)[C@H](NC(=O)C1CSSCC(NC(=O)C(Cc2ccccc2)NC(=O)CNC(=O)CNC(=O)CNC(=O)C(CC(=O)O)NC(=O)[C@@H](CC(=O)O)NC(=O)C(CNC(=O)CN2CCN(CC(=O)O)CCN(CC(=O)O)CCN(CC(=O)O)CC2)NC(=O)[C@@H](CN)NC(=O)CNC(=O)CNC(=O)C[N+](C)(C)Cc2ccc([Si](F)(C(C)(C)C)C(C)(C)C)cc2)C(=O)N[C@@H](Cc2ccc(O)cc2)C(=O)NC(Cc2c[nH]c3ccccc23)C(=O)N[C@@H](CCCCN)C(=O)N[C@@H]([C@@H](C)O)C(=O)N1)C(=O)O (stereo partly shown) [[Ga]53], the HSA (HSA) was 8.48 kDa and the “LogDpH=7.4” value [1] was −1.96 ± 0.01.
In the case of C[C@@H](O)[C@H](NC(=O)C1CSSCC(NC(=O)C(Cc2ccccc2)NC(=O)CNC(=O)CNC(=O)[C@@H](CC(=O)O)NC(=O)C(CC(=O)O)NC(=O)[C@@H](CNC(=O)CC[C@H](C(=O)O)N2CCN(CC(=O)O)CCN(CC(=O)O)CCN(CC(=O)O)CC2)NC(=O)C(CN)NC(=O)c2ccc([Si](F)(C(C)(C)C)C(C)(C)C)cc2)C(=O)N[C@@H](Cc2ccc(O)cc2)C(=O)NC(Cc2c[nH]c3ccccc23)C(=O)N[C@@H](CCCCN)C(=O)N[C@@H]([C@@H](C)O)C(=O)N1)C(=O)O (stereo partly shown) [[Lu]20], the HSA (HSA) is reported as 18.76 kDa and the “LogDpH=7.4” value [1] is reported as −2.35 ± 0.04.
For C[C@@H](O)[C@H](NC(=O)C1CSSCC(NC(=O)C(Cc2ccccc2)NC(=O)CNC(=O)CNC(=O)CNC(=O)C(CC(=O)O)NC(=O)[C@@H](CC(=O)O)NC(=O)C(CNC(=O)CN2CCN(CC(=O)O)CCN(CC(=O)O)CCN(CC(=O)O)CC2)NC(=O)C[N+](C)(C)Cc2ccc([Si](F)(C(C)(C)C)C(C)(C)C)cc2)C(=O)N[C@@H](Cc2ccc(O)cc2)C(=O)NC(Cc2c[nH]c3ccccc23)C(=O)N[C@@H](CCCCN)C(=O)N[C@@H]([C@@H](C)O)C(=O)N1)C(=O)O (stereo partly shown) [[Lu]50], the HSA (HSA) was 8.17 kDa and the “LogDpH=7.4” value [1] was −1.79 ± 0.02.
With C[C@@H](O)[C@H](NC(=O)C1CSSCC(NC(=O)C(Cc2ccccc2)NC(=O)CNC(=O)CNC(=O)CNC(=O)C(CC(=O)O)NC(=O)[C@@H](CC(=O)O)NC(=O)C(CNC(=O)CN2CCN(CC(=O)O)CCN(CC(=O)O)CCN(CC(=O)O)CC2)NC(=O)[C@@H](CN)NC(=O)C[N+](C)(C)Cc2ccc([Si](F)(C(C)(C)C)C(C)(C)C)cc2)C(=O)N[C@@H](Cc2ccc(O)cc2)C(=O)NC(Cc2c[nH]c3ccccc23)C(=O)N[C@@H](CCCCN)C(=O)N[C@@H]([C@@H](C)O)C(=O)N1)C(=O)O (stereo partly shown) [[Lu]51] the HSA (HSA) was 8.84 kDa and the “LogDpH=7.4” value [1] was −1.71 ± 0.05.
In the case of C[C@@H](O)[C@H](NC(=O)C1CSSCC(NC(=O)C(Cc2ccccc2)NC(=O)CNC(=O)CNC(=O)CNC(=O)C(CC(=O)O)NC(=O)[C@@H](CC(=O)O)NC(=O)C(CNC(=O)CN2CCN(CC(=O)O)CCN(CC(=O)O)CCN(CC(=O)O)CC2)NC(=O)[C@@H](CN)NC(=O)CNC(=O)C[N+](C)(C)Cc2ccc([Si](F)(C(C)(C)C)C(C)(C)C)cc2)C(=O)N[C@@H](Cc2ccc(O)cc2)C(=O)NC(Cc2c[nH]c3ccccc23)C(=O)N[C@@H](CCCCN)C(=O)N[C@@H]([C@@H](C)O)C(=O)N1)C(=O)O (stereo partly shown) [[Lu]52], the HSA (HSA) is reported as 8.47 kDa and the “LogDpH=7.4” value [1] is reported as −1.88 ± 0.05.
For C[C@@H](O)[C@H](NC(=O)C1CSSCC(NC(=O)C(Cc2ccccc2)NC(=O)CNC(=O)CNC(=O)CNC(=O)C(CC(=O)O)NC(=O)[C@@H](CC(=O)O)NC(=O)C(CNC(=O)CN2CCN(CC(=O)O)CCN(CC(=O)O)CCN(CC(=O)O)CC2)NC(=O)[C@@H](CN)NC(=O)CNC(=O)CNC(=O)C[N+](C)(C)Cc2ccc([Si](F)(C(C)(C)C)C(C)(C)C)cc2)C(=O)N[C@@H](Cc2ccc(O)cc2)C(=O)NC(Cc2c[nH]c3ccccc23)C(=O)N[C@@H](CCCCN)C(=O)N[C@@H]([C@@H](C)O)C(=O)N1)C(=O)O (stereo partly shown) [[Lu]53], the HSA (HSA) was 9.81 kDa and the “LogDpH=7.4” value [1] was −1.74 ± 0.03.
